Calls of active or inactive are those of the source. Cut-off read from the data, not from the text of the source, for most assays here: actives have a measured EC50 and inactives only a lower limit.
Assays:
Streptococcus = assay: Group A Streptococcus viability loss, dose response, counter-screen for streptokinase expression inhibitor project, luminescence, BacTiterGlo (AID 1915); assay type: functional, organism-based;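 note: potency for reduction of bacterial viability or growth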
[1] = test system: Streptococcus sp. 'group A'; assay: growth inhibition of control SK(-) GAS strain, dose response, counter-screen for streptokinase expression inhibitor project, luminescence, kanamycin, BacTiterGlo, confirmation (AID 1900); assay type: functional, organism-based
[2] = target: T1, Carboxy-terminal domain RNA polymerase II polypeptide A small phosphatase 1 (Homo sapiens, UniProt Q9GZU7); assay: inhibitors of CTDSP1, concentration-response testing, biochemical assay, absorbance-based, actives from ultra-high-throughput screening (AID 540297); assay type: functional
T1 sequence (Q9GZU7 whole entry): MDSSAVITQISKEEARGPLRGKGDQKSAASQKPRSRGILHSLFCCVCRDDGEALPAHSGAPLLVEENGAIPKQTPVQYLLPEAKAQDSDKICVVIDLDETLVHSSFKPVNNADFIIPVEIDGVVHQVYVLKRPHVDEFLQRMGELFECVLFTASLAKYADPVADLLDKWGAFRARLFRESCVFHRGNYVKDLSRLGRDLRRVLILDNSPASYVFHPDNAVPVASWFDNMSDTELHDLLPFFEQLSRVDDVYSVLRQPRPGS

Streptokinase A = target: T2, Streptokinase A (Streptococcus pyogenes serotype M1, UniProt P10520); assay: S. pyogenes streptokinase expression inhibitors, potency, dose response, plasminogen activation absorbance, OD405 (AID 1914); assay type: functional, Streptococcus pyogenes M1 GAS;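 note: secreted streptokinase activity via plasminogen activation per viability signal from cell pellet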
T2 sequence (P10520 whole entry): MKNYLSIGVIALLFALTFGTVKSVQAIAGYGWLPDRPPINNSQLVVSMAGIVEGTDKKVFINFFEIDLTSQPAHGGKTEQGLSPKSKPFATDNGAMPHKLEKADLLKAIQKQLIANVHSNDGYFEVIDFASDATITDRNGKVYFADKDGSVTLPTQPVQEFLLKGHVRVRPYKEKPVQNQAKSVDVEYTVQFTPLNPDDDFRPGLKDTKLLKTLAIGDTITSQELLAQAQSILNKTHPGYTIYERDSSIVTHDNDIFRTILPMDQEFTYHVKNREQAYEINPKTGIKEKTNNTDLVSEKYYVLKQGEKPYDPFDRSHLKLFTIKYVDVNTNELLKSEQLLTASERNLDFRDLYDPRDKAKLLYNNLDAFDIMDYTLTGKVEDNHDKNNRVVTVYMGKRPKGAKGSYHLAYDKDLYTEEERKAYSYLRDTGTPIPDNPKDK

[3] = target: T3, High affinity choline transporter 1 (Homo sapiens, UniProt Q9GZV3); assay: CHT inhibitors, dose response, cell-based, 5-point CRC, membrane potential dye (AID 504840); assay type: functional
T3 sequence (Q9GZV3 whole entry): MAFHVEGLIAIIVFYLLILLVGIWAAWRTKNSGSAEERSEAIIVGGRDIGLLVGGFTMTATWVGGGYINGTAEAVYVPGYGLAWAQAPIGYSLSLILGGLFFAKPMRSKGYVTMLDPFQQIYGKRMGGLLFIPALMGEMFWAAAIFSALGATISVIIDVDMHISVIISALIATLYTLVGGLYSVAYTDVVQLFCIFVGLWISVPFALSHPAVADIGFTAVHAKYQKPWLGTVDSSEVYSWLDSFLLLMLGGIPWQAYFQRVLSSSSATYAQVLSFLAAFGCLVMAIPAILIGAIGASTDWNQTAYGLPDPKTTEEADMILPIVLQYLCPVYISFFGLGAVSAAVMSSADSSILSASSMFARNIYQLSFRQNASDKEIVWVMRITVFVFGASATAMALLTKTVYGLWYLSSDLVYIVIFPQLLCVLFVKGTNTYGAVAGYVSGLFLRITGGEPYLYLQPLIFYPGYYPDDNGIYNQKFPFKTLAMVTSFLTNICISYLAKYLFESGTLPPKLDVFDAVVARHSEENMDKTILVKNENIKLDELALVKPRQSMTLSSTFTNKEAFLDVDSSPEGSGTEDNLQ

Protein skinhead-1 = target: T4, Protein skinhead-1 (Caenorhabditis elegans, UniProt P34707); assay type: functional
T4 sequence (P34707 whole entry): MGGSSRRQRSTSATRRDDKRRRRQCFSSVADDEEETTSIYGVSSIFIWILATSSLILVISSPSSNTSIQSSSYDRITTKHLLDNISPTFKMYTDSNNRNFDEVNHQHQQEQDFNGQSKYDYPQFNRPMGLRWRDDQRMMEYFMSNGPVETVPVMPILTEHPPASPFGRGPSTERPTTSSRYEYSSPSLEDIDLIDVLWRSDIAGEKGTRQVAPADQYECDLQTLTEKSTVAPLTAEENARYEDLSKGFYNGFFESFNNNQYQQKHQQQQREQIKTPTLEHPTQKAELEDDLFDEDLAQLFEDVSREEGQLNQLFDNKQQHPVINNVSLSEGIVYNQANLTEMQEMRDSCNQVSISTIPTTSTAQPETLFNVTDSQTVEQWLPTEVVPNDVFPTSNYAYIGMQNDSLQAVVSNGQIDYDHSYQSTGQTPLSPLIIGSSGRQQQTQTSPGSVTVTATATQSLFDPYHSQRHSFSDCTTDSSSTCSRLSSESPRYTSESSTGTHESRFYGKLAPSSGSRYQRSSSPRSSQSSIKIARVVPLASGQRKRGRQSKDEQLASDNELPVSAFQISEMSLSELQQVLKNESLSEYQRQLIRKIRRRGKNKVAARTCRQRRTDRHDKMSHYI

[4] = Luminescence Cell-Based Dose Confirmation HTS to Identify Inhibitors of Platelet Dense Granule Release. [Related pubchem assays: 1663 (Primary HTS), 1678 (Summary of Project)]; assay type: functional
[5] = target: Luciferin 4-monooxygenase (Photinus pyralis, UniProt P08659); assay: firefly luciferase enzyme inhibitors, dose response, biochemical, luminescence (AID 1891)
[6] = inhibitors of firefly luciferase expression or activity, dose response, H4 neuroglioma cells, luminescence (AID 1990); assay type: functional, cell-based
[7] = Luminescence Cell-Based Dose Response HTS to Identify Inhibitors of 5'UTR Stem-Loop Driven Prion Protein mRNA Translation in H4 Neuroglioblastoma Cells. [Related pubchem assays: 1827 (Project Summary), 1813 (Primary HTS)]; assay type: functional
[8] = inhibitors of SNCA 5'UTR-driven reporter translation, confirmation, H4 neuroglioma cells, luminescence (AID 1988); assay type: functional, cell-based
[9] = target: T5, Heat shock factor protein 1 (Mus musculus, UniProt P38532); assay: inhibition of MG132-induced HSE-luciferase signal, confirmation, cell-based, NIH3T3, luminescence, dose retest (AID 2382); assay type: functional;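 note: NIH3T3 fibroblasts with HSF1-driven luciferase reporter stressed by proteasome inhibitor MG132; luminescence from HSF1-driven luciferase expression after 8 hours of MG132 stress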
T5 sequence (P38532 whole entry): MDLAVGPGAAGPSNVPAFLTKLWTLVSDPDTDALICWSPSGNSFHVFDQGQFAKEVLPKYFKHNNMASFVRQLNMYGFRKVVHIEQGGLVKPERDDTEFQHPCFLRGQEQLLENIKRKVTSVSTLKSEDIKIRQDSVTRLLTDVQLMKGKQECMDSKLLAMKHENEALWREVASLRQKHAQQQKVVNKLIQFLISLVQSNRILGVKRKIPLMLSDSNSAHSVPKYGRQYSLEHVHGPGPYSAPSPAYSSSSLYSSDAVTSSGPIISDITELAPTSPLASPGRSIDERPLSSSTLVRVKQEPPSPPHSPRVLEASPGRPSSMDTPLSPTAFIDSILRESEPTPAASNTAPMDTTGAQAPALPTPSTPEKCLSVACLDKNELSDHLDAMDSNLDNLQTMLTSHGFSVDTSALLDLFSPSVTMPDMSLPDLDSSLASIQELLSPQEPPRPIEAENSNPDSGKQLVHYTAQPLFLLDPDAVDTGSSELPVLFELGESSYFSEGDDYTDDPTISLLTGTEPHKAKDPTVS

INS1 = assay: beta cell apoptosis inhibitors, cytokine rescue, dose response, luminescence, retest (AID 449756); assay type: functional, cell-based; details: Rattus norvegicus;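 note: cell death triggered by IL-1 beta plus TNF-alpha plus IFN-gamma mixture; protective hits raise ATP signal compared with cytokine alone wells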
[10] = Luminescence Cell-Based Dose Retest to Confirm Inhibitors of Cancer Stem Cells. [Related pubchem assays (depositor defined):AID2717, AID2721]; assay type: functional; details: Homo sapiens
[11] = growth suppression of beta-catenin-knockout colon cells, dose response, cell-based, HCT116, human colon tumor (AID 1045); assay type: functional;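 note: HCT116 colon tumor cells with beta catenin knocked out; cells exposed to compound for 60 hours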
[12] = growth suppression of PTEN-null colon cells, dose response, cell-based, HCT116 PTEN knockout (AID 1047); assay type: functional;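 note: HCT116 colon tumor cells with PTEN knocked out; cells exposed to compound for 60 hours before readout; potency for loss of cell viability measured by luminescence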
H4 = assay: Luminescence Cell-Based Dose Response HTS to Identify Activators of 5'UTR Stem-Loop Driven Prion Protein mRNA Translation in H4 Neuroglioblastoma Cells. [Related pubchem assays: 1829 (Project Summary), 1814 (Primary HTS)]; assay type: functional; details: Homo sapiens
[13] = Luminescence Cell-Based Dose Response HTS to Identify Activators of Luciferase Translation or Activity in H4 […] Cells. [Related pubchem assays: 1829 (Project Summary), 1814 (Primary HTS)]; assay type: functional
[14] = Luminescence Cell-Based Dose Confirmation HTS to Identify Activators of 5'UTR Stem-Loop Driven Alpha-Synuclein mRNA Translation in H4 Neuroglioblastoma Cells. [Related pubchem assays: 1829 (Project Summary), 1814 (Primary HTS)]; assay type: functional
[15] = NIH-3T3 fibroblast cytotoxicity, dose response, cytotoxicity control, cell-based, fluorescence, Alamar Blue, secondary assay (AID 2327); assay type: functional;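 note: NIH-3T3 mouse fibroblasts cultured with fluconazole at 8 µg/mL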
[16] = C. albicans growth with fluconazole, confirmation, fluorescence, retest (AID 2467); assay type: functional, cell-based
[17] = P. falciparum Dd2 growth inhibitors, dose response, SYBR Green, cherry-picked samples (AID 1159567); assay type: functional, cell-based

Luciferin 4-monooxygenase, sequence (P08659 whole entry): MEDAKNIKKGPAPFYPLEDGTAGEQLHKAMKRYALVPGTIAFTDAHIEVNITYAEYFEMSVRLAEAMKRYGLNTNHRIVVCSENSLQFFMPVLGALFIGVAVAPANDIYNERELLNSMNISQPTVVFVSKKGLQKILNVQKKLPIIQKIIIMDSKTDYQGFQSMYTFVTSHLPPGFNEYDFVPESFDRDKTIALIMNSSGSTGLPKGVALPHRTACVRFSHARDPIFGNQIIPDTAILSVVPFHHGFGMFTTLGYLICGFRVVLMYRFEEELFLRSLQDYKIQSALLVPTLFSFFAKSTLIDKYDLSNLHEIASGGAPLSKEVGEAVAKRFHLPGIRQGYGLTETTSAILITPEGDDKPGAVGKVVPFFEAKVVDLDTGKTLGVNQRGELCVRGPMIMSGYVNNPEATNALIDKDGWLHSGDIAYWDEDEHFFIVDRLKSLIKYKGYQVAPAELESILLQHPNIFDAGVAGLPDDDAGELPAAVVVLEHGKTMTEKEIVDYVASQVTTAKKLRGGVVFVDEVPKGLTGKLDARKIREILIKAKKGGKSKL

COc1ccc(Cn2c(C3CCCCC3)nc3c(c(=O)c4ccccc4n3C)c2=O)cc1
EC50 (Streptococcus): 6.96 µM (active)
EC50 [1]: 6.03 µM (active)
IC50 [2]: 5.55 µM (active)
EC50 (Streptokinase A): > 150 µM (not active)

CC1CCN(CC(=O)Nc2cccc(C(=O)Nc3cccc(C(F)(F)F)c3)c2)CC1
IC50 [3]: 12.3 µM (active)
IC50 (Protein skinhead-1): 43.2 µM (active)

CC1CCN(CC(O)COc2ccc(OCC(O)CN3CCC(C)CC3)cc2)CC1 (centres undefined)
IC50 [3]: 12.6 µM (active)

COc1cccc(NC(=O)c2cnn(-c3ccccc3)c2C)c1
EC50 [4]: 20.2 µM (active)
EC50 [5]: 8.62 µM (active)

CCCc1cc2c(=O)c(-c3cscn3)c(C(=O)OCC)oc2cc1O
IC50 [3]: 13.8 µM (active)

Cc1cccc(N2CC(C)Cn3c2nc2c3c(=O)n(CC(=O)OCc3ccccc3)c(=O)n2C)c1 (centres undefined)
EC50 [4]: > 112 µM (not active)
EC50 [5]: 27.8 µM (active)

Cc1ccc(C)c(OCC(=O)Nc2ccc(S(=O)(=O)Nc3ccccn3)cc2)c1C
IC50 [3]: 7.2 µM (active)

O=C1c2ccccc2C(O)N1CCN1CCOCC1 (centres undefined)
EC50 [4]: > 112 µM (not active)
EC50 [5]: > 112 µM (not active)

CCCn1nc(NS(=O)(=O)c2ccc(F)cc2)c2cc3ccccc3nc21
EC50 [4]: > 112 µM (not active)
EC50 [5]: > 112 µM (not active)

Fc1ccc(-c2nnc(NC3=NCCCCC3)o2)cc1
EC50 [6]: 2.66 µM (active)
EC50 [4]: 2.88 µM (active)
EC50 [7]: 0.751 µM (active)
EC50 [5]: 13.9 µM (active)
EC50 [8]: 1.4 µM (active)
EC50 [9]: 16 µM (active)

CCCCC1CCC(C(=O)N(CC(C)C)c2c(N)n(Cc3ccccc3)c(=O)[nH]c2=O)CC1 (centres undefined)
AC50 (INS1): 5.82 µM (active)
AC50 [10]: 2.96 µM (active)

Cc1sc(NC(=O)c2cc(-c3ccc(Cl)cc3)nc3ccccc23)c(C(N)=O)c1C
EC50 [11]: 15.3 µM (active)
EC50 [12]: 17.3 µM (active)

O=C(NCCC1=CCCCC1)NC1CCCCC1
EC50 [4]: > 112 µM (not active)
IC50 (Protein skinhead-1): > 100 µM (inactive)
EC50 [5]: > 112 µM (not active)

CC1=NN(c2ccccc2)C(=O)/C1=C/c1cc2cc(C)ccc2nc1N1CCCCC1
EC50 (H4): > 120 µM (inconclusive)
EC50 [13]: 17.1 µM (active)
EC50 [11]: 25.2 µM (active)
EC50 [14]: 8.69 µM (active)
EC50 [12]: 17.8 µM (active)

Cc1ccc(C)c(N2CCN(S(=O)(=O)c3ccc4c(c3)OCCO4)CC2)c1
EC50 [4]: > 112 µM (not active)
EC50 [5]: > 112 µM (not active)

Cc1cc(C)c(C)c(S(=O)(=O)N[C@@H](C)C(=O)OCc2cc(=O)n3cc(Br)ccc3n2)c1C
IC50 [2]: 7.42 µM (active)

CC(C)C(=O)Nc1ncc2c(n1)CC(c1cccs1)CC2=O (centres undefined)
EC50 [4]: > 112 µM (not active)
EC50 [5]: > 112 µM (not active)

COc1cc(C(=O)Nc2ccc(Br)cc2C(=O)c2ccccc2Cl)cc(OC)c1OC
EC50 [11]: 29 µM (active)
EC50 [12]: 153 µM (active)

CCOC(=O)c1cccc(Nc2ncnc3ccccc23)c1
IC50 [3]: 14.5 µM (active)

O=c1c2ccccc2nc(SCc2ccncc2)n1CC1CCCO1 (centres undefined)
IC50 [3]: 12.9 µM (active)

C/C(=N\NC(=O)C(C)n1nc(C)c([N+](=O)[O-])c1C)c1ccccc1O (centres undefined)
AC50 (INS1): 1.93 µM (active)

Cc1nn(-c2ccc(F)cc2)c(Cl)c1/C=N/NC(=O)c1cccc(S(=O)(=O)N2CCCC2)c1
IC50 [2]: 10.7 µM (active)

COc1ccc(C/C(O)=C(\C#N)c2nc3ccccc3s2)cc1
EC50 [15]: 39.5 µM (active)
EC50 [16]: 0.405 µM (active)
IC50 [3]: 0.724 µM (active)

CCn1/c(=N/C(=O)c2ccc(S(=O)(=O)N3CCOCC3)cc2)sc2cccc(OC)c21
AC50 (INS1): 5.66 µM (active)

O=C(N/N=C/c1ccc2c(c1)OCO2)c1ccc(COCC(F)(F)C(F)F)cc1
IC50 [2]: 9.06 µM (active)
AC50 [10]: 1.12 µM (active)

O=C(c1ccccn1)N1CC2(C1)[C@@H](c1ccccc1)[C@H](CO)N2Cc1ccc(Cl)cc1
AC50 [17]: 4.6 µM (active)

COc1ccc(NC(=O)N2CCC3(CC2)CN(C(=O)C2CCC2)[C@@H](CO)c2c3c3ccc(OC)cc3n2C)cc1
AC50 [17]: 6.04 µM (active)

Source: ChEMBL document CHEMBL1201862, “PubChem BioAssay data set” (2004)
